Values quoted from earlier work, collected in US20180311177A1, “Therapeutic Nanoparticles Comprising A Therapeutic Agent and Methods of Making and Using Same” (Pfizer Inc., priority 2015, published 2018).

Legend:
[1] = not given; remark: listed apart in the source

log P	SMILES	pKa [1]
2.89	c1ccc(CNCCNCc2ccccc2)cc1 [N,N′-dibenzylethylenediamine]	
4.25	CCCCCCCCCCCCN [dodecylamine]	10.21

SMILES	log P	pKa [1]
c1ccc(CCNCc2ccccc2)cc1 [N-(phenylmethyl)benzeneethanamine]	3.54	9.88
